This is an account of results in patent publication US9765075B2, “Substituted bridged urea analogs as sirtuin modulators” (GLAXOSMITHKLINE LLC, priority 2013, dated 2017).

The target in the assay is T1, SIRT1 (Homo sapiens, UniProt Q96EB6).
T1 sequence (Q96EB6 1-747): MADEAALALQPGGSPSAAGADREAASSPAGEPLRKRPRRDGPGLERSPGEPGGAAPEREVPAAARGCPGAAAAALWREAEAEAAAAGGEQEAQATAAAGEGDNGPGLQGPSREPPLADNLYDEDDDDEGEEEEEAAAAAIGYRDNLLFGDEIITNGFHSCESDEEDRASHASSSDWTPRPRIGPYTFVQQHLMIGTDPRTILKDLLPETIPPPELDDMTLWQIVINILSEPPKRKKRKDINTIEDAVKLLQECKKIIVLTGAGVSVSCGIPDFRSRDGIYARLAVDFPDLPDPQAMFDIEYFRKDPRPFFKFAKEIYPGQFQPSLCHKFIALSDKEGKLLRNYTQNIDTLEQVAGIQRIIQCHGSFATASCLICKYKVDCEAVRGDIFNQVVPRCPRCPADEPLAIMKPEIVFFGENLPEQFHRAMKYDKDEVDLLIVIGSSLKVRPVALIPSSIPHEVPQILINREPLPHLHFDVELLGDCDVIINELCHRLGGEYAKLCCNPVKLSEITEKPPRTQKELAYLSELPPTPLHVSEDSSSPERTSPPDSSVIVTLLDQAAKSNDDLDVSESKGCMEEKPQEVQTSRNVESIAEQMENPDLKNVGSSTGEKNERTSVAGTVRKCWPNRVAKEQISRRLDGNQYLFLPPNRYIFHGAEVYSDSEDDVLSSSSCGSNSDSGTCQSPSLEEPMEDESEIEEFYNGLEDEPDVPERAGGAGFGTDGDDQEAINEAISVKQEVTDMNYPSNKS
The assay is described as follows: Trp mass spectrometry assay (SIRT1 activation). Type of assay: biochemical. The settings on record: Trp peptide substrate; for Tryp AVG EC1.5 (μM): concentration of test compound that results in 150% activation of SIRT1; for Emax: percent maximum fold activation of SIRT1, read-out: Tryp % Fold Act. In a few lines:
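Activation is expressed as EC1.5, the concentration raising activity 50% above DMSO control, and as maximum percent of control. Mass-spec readout was OAADPR or deacetylated Trp peptide after a formic-acid-quenched 25-min, 25 °C reaction: 10 nM bacterially expressed His-SIRT1, 0.5 μM acetyl-p53-derived peptide, 120 μM NAD+, pH 7.5 HEPES with […].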

Take `O=C(Nc1cnccn1)N1c2nc(-c3ccnc(N4CC[C@H](F)C4)c3)ccc2N2CC[C@H]1C2` [Example 436]: the “Tryp AVG EC1.5 (μM)” value is recorded as “A (EC1.5<1 μM)” and the Emax is not below 150%. Turning to `COc1cc(NC(=O)N2c3nc(-c4ccnc(N5CC[C@H](F)C5)c4)ccc3N3CC[C@H]2C3)ncn1` [Example 437], the “Tryp AVG EC1.5 (μM)” value was “B (EC1.5 1-25 μM)” and the Emax was not below 150%. Regarding `N#Cc1ccccc1-c1ccc2c(n1)N(C(=O)Nc1cccnc1)[C@H]1CCCN2C1` [Example 438], the “Tryp AVG EC1.5 (μM)” value is “B (EC1.5 1-25 μM)” and the Emax was not below 150%. For `N#Cc1ccccc1-c1ccc2c(n1)N(C(=O)Nc1cncc(F)c1)[C@H]1CCCN2C1` [Example 439] the same measures were “B (EC1.5 1-25 μM)” and not below 150%. As for `COc1cc(NC(=O)N2c3nc(-c4ccccc4C#N)ccc3N3CCC[C@H]2C3)ncn1` [Example 440], the “Tryp AVG EC1.5 (μM)” value is recorded as “C (EC1.5>25 μM)” and the Emax was less than 150%. As for `O=C(Nc1ccccn1)N1c2nc(-c3cccnc3)ccc2N2CCC[C@H]1C2` [Example 441], the “Tryp AVG EC1.5 (μM)” value is on record as “B (EC1.5 1-25 μM)” and the Emax was not below 150%. The like results for `COc1cc(NC(=O)N2c3nc(-c4cccnc4)ccc3N3CCC[C@H]2C3)ncn1` [Example 442] were, in that order, “B (EC1.5 1-25 μM)” and not below 150%. With `O=C(Nc1cnccn1)N1c2nc(-c3cccc(Cl)c3)cc(O)c2N2CC[C@H]1C2` [Example 443], the “Tryp AVG EC1.5 (μM)” value is on record as “B (EC1.5 1-25 μM)” and the Emax is not below 150%.

As to `CC(C)(C)OC(=O)NCc1ccc(NC(=O)N2c3nc(-c4cccc(C(F)(F)F)c4)ccc3N3CCC[C@H]2C3)cc1` [Example 445], the “Tryp AVG EC1.5 (μM)” value was “A (EC1.5<1 μM)” and the Emax is not below 150%. For `COC(=O)N1CCCN(c2ccc3c(n2)N(C(=O)Nc2ccncn2)[C@H]2CCCN3C2)CC1` [Example 446], the “Tryp AVG EC1.5 (μM)” value is recorded as “B (EC1.5 1-25 μM)” and the Emax is not below 150%. On to `CC(C)N1CCCN(c2ccc3c(n2)N(C(=O)Nc2ccncn2)[C@H]2CCCN3C2)CC1` [Example 447], for which the “Tryp AVG EC1.5 (μM)” value is listed as “C (EC1.5>25 μM)” and the Emax is less than 150%. Regarding `O=C(Nc1ccccn1)N1c2nc(-c3ccnc(N4CC[C@@H](F)C4)c3)ccc2N2CC[C@H]1C2` [Example 448], the “Tryp AVG EC1.5 (μM)” value is “B (EC1.5 1-25 μM)” and the Emax was not below 150%. For `N#Cc1ccccc1-c1ccc2c(n1)N(C(=O)Nc1ccccn1)[C@H]1CCCN2C1` [Example 449], the “Tryp AVG EC1.5 (μM)” value is listed as “B (EC1.5 1-25 μM)” and the Emax was not below 150%. For `N#Cc1ccccc1-c1ccc2c(n1)N(C(=O)Nc1cnccn1)[C@H]1CCCN2C1` [Example 450], the “Tryp AVG EC1.5 (μM)” value is on record as “B (EC1.5 1-25 μM)” and the Emax is not below 150%. The like results for `N#Cc1ccccc1-c1ccc2c(n1)N(C(=O)Nc1ccncn1)[C@H]1CCCN2C1` [Example 451] were, in that order, “B (EC1.5 1-25 μM)” and not below 150%. On to `O=C(Nc1cnccn1)N1c2nc(-c3cncc(C(F)(F)F)c3)ccc2N2CCC[C@H]1C2` [Example 452], for which the “Tryp AVG EC1.5 (μM)” value was “A (EC1.5<1 μM)” and the Emax is not below 150%. For `O=C(Nc1cncc(F)c1)N1c2nc(-c3cccnc3)ccc2N2CCC[C@H]1C2` [Example 453] the same measures were “B (EC1.5 1-25 μM)” and not below 150%. For `O=C(Nc1cnccn1)N1c2nc(-c3cccnc3)ccc2N2CCC[C@H]1C2` [Example 454] the same measures were “B (EC1.5 1-25 μM)” and not below 150%. For `O=C(Nc1cccnc1)N1c2nc(-c3cccnc3)ccc2N2CCC[C@H]1C2` [Example 455] the same measures were “B (EC1.5 1-25 μM)” and not below 150%. Regarding `O=C(Nc1ccncn1)N1c2nc(-c3cccnc3)ccc2N2CCC[C@H]1C2` [Example 456], the “Tryp AVG EC1.5 (μM)” value was “B (EC1.5 1-25 μM)” and the Emax is not below 150%. Consider `O=C(Nc1cccnn1)N1c2nc(-c3cccnc3)ccc2N2CCC[C@H]1C2` [Example 457], for which the “Tryp AVG EC1.5 (μM)” value is “B (EC1.5 1-25 μM)”. For the compound `CN(C)c1ccc(-c2ccc3c(n2)N(C(=O)Nc2cnccn2)[C@H]2CCN3C2)cn1` [Example 458], the “Tryp AVG EC1.5 (μM)” value is “B (EC1.5 1-25 μM)” and the Emax was not below 150%. For the compound `N#Cc1cncc(-c2ccc3c(n2)N(C(=O)Nc2cnccn2)[C@H]2CCN3C2)c1` [Example 459], the “Tryp AVG EC1.5 (μM)” value is on record as “A (EC1.5<1 μM)” and the Emax was not below 150%. As to `O=C(Nc1cncc(F)c1)N1c2nc(-c3cccc(C(F)(F)F)c3)ccc2S(=O)(=O)N2CC[C@H]1C2` [Example 460], the “Tryp AVG EC1.5 (μM)” value is listed as “B (EC1.5 1-25 μM)” and the Emax was not below 150%. Turning to `O=C(Nc1cnccn1)N1c2nc(-c3ccc(Cl)c(Cl)c3)ccc2N2CC[C@H]1C2` [Example 461], the “Tryp AVG EC1.5 (μM)” value is reported as “A (EC1.5<1 μM)” and the Emax was not below 150%. Turning to `O=C(Nc1cnccn1)N1c2nc(-c3ccnc(N4CC[C@@H](F)C4)c3)ccc2N2CC[C@H]1C2` [Example 462], the “Tryp AVG EC1.5 (μM)” value is “B (EC1.5 1-25 μM)” and the Emax was not below 150%.

On to `O=C(Nc1ccc(F)cn1)N1c2nc(-c3ccnc(N4CC[C@H](F)C4)c3)ccc2N2CC[C@H]1C2` [Example 463], for which the “Tryp AVG EC1.5 (μM)” value is on record as “A (EC1.5<1 μM)” and the Emax was not below 150%.

As for `O=C(Nc1cncc(F)c1)N1c2nc(-c3ccnc(N4CC[C@@H](F)C4)c3)ccc2N2CC[C@H]1C2` [Example 464], the “Tryp AVG EC1.5 (μM)” value is given as “B (EC1.5 1-25 μM)” and the Emax was not below 150%. In the case of `Cc1ccc(-c2ccc3c(n2)N(C(=O)Nc2ccccn2)[C@H]2CCCN3C2)cn1` [Example 465], the “Tryp AVG EC1.5 (μM)” value is given as “B (EC1.5 1-25 μM)” and the Emax was not below 150%. Regarding `Cc1nc(NC(=O)N2c3nc(-c4cccnc4)ccc3N3CCC[C@H]2C3)sc1C` [Example 466], the “Tryp AVG EC1.5 (μM)” value is “B (EC1.5 1-25 μM)” and the Emax was not below 150%. Regarding `Cc1ccc(-c2ccc3c(n2)N(C(=O)Nc2cccnn2)[C@H]2CCCN3C2)cn1` [Example 467], the “Tryp AVG EC1.5 (μM)” value is “B (EC1.5 1-25 μM)” and the Emax was not below 150%.

As for `Cc1cc(-c2ccc3c(n2)N(C(=O)Nc2ccncn2)[C@H]2CCN3C2)ccn1` [Example 468], the “Tryp AVG EC1.5 (μM)” value is recorded as “B (EC1.5 1-25 μM)” and the Emax was not below 150%. For `O=C(Nc1cncc(F)c1)N1c2nc(N3CC[C@H](F)C3)ccc2S(=O)(=O)N2CC[C@H]1C2` [Example 469] the same measures were “C (EC1.5>25 μM)” and less than 150%. As to `O=C(Nc1ccccn1)N1c2nc(-c3cncc(F)c3)ccc2N2CCC[C@H]1C2` [Example 470], the “Tryp AVG EC1.5 (μM)” value is recorded as “A (EC1.5<1 μM)” and the Emax was not below 150%.

`Cc1nc(NC(=O)N2c3nc(-c4cncc(F)c4)ccc3N3CCC[C@H]2C3)sc1C` [Example 471]: the “Tryp AVG EC1.5 (μM)” value is “B (EC1.5 1-25 μM)” and the Emax is not below 150%.

In the case of `O=C(Nc1cnccn1)N1c2nc(-c3cccc(C(F)(F)F)c3)ccc2N2CCC1CC2` [Example 472], the “Tryp AVG EC1.5 (μM)” value was “A (EC1.5<1 μM)” and the Emax was not below 150%. `O=C(Nc1cccc(-c2cnco2)c1)N1c2nc(-c3cccc(C(F)(F)F)c3)ccc2N2CCC1CC2` [Example 473]: the “Tryp AVG EC1.5 (μM)” value is “A (EC1.5<1 μM)” and the Emax is not below 150%.

Take `O=C(Nc1ccc(F)cn1)N1c2nc(-c3ccnc(N4CC[C@@H](F)C4)c3)ccc2N2CC[C@H]1C2` [Example 474]: the “Tryp AVG EC1.5 (μM)” value is “A (EC1.5<1 μM)” and the Emax was not below 150%. `O=C(Nc1cncc(F)c1)N1c2nc(-c3ccnc(N4CC[C@H](F)C4)c3)ccc2N2CC[C@H]1C2` [Example 475]: the “Tryp AVG EC1.5 (μM)” value was “A (EC1.5<1 μM)” and the Emax is not below 150%. For `Cc1nc(NC(=O)N2c3nc(-c4ccccc4C#N)ccc3N3CCC[C@H]2C3)sc1C` [Example 476], the “Tryp AVG EC1.5 (μM)” value is “B (EC1.5 1-25 μM)” and the Emax was not below 150%.

Turning to `Cc1ccc(-c2ccc3c(n2)N(C(=O)Nc2cncc(F)c2)[C@H]2CCCN3C2)cn1` [Example 477], the “Tryp AVG EC1.5 (μM)” value is recorded as “B (EC1.5 1-25 μM)” and the Emax is not below 150%. The like results for `COc1cc(NC(=O)N2c3nc(-c4ccc(C)nc4)ccc3N3CCC[C@H]2C3)ncn1` [Example 478] were, in that order, “B (EC1.5 1-25 μM)” and not below 150%.

With `Cc1ccc(-c2ccc3c(n2)N(C(=O)Nc2ccncn2)[C@H]2CCCN3C2)cn1` [Example 479], the “Tryp AVG EC1.5 (μM)” value is given as “B (EC1.5 1-25 μM)” and the Emax was not below 150%.
